Laboratory results taken from ChEMBL document CHEMBL1157504, “Discovery and SAR of 2-(1-propylpiperidin-4-yl)-1H-benzimidazole-4-carboxamide: A potent inhibitor of poly(ADP-ribose) polymerase (PARP) for the treatment of cancer” (Bioorg Med Chem, 2008).
Converted amounts (≈) assume the structure as drawn. Each block holds one molecule with its values, some of them ahead of it.

Tests used:
[1] = molecular target: T1, Poly [ADP-ribose] polymerase 1 (Homo sapiens, UniProt P09874)
[2] = molecular target: T1, Poly [ADP-ribose] polymerase 1; remark: listed apart in the source
Description: Inhibition of PARP1 in human C41 cells

[3] = Oral bioavailability in CD1 mouse at 10 mg/kg; assay type: ADME, organism-based; settings: in vivo
[4] = Half life in CD1 mouse at 3 mg/kg, iv; assay type: ADME, organism-based; parameters: dose 3 mg/kg, route intravenous; settings: in vivo
[5] = Cmax in CD1 mouse at 10 mg/kg, po; assay type: ADME, organism-based; parameters: dose 10 mg/kg, route oral; settings: in vivo
[6] = AUC in CD1 mouse at 10 mg/kg, po; assay type: ADME, organism-based; parameters: dose 10 mg/kg, route oral; settings: plasma
[7] = Volume of distribution at steady state in rat at 4.1 mg/kg; assay type: ADME, organism-based; parameters: dose 4.1 mg/kg; settings: in vivo, read-out: Vdss
[8] = Solubility in water at pH 7.8; assay type: physicochemical
[9] = Cmax in dog at 4.1 mg/kg, po; assay type: ADME, organism-based, Canis lupus familiaris; parameters: dose 4.1 mg/kg, route oral; settings: in vivo
[10] = Half life in CD1 mouse at 3 mg/kg, iv; settings: in vivo
[11] = Volume of distribution at steady state in monkey at 4.1 mg/kg; assay type: ADME, organism-based, Macaca mulatta; parameters: dose 4.1 mg/kg; settings: rhesus monkey, in vivo, read-out: Vdss
[12] = Clearance in rat at 4.1 mg/kg; assay type: ADME, organism-based; parameters: dose 4.1 mg/kg; settings: in vivo
[13] = Volume of distribution at steady state in CD1 mouse at 10 mg/kg; assay type: ADME, organism-based; parameters: dose 10 mg/kg; settings: in vivo, read-out: Vdss
[14] = Clearance in CD1 mouse at 10 mg/kg; assay type: ADME, organism-based; parameters: dose 10 mg/kg; settings: in vivo
[15] = Cmax in monkey at 4.1 mg/kg, po; assay type: ADME, organism-based, Macaca mulatta; parameters: dose 4.1 mg/kg, route oral; settings: rhesus monkey, in vivo
[16] = Half life in monkey at 4.1 mg/kg, iv; assay type: ADME, organism-based, Macaca mulatta; parameters: dose 4.1 mg/kg, route intravenous; settings: rhesus monkey, in vivo
[17] = AUC in dog at 4.1 mg/kg, po; assay type: ADME, organism-based, Canis lupus familiaris; parameters: dose 4.1 mg/kg, route oral; settings: plasma
[18] = Oral bioavailability in monkey at 4.1 mg/kg; assay type: ADME, organism-based, Macaca mulatta; settings: rhesus monkey, in vivo
[19] = Cmax in rat at 4.1 mg/kg, po; assay type: ADME, organism-based; parameters: dose 4.1 mg/kg, route oral; settings: in vivo
[20] = AUC in rat at 4.1 mg/kg, po; assay type: ADME, organism-based; parameters: dose 4.1 mg/kg, route oral; settings: plasma
[21] = Half life in dog at 4.1 mg/kg, iv; assay type: ADME, organism-based, Canis lupus familiaris; parameters: dose 4.1 mg/kg, route intravenous; settings: in vivo
[22] = Protein binding in human plasma; assay type: ADME, cell-free; settings: read-out: PPB (converted)
[23] = Clearance in monkey at 4.1 mg/kg; assay type: ADME, organism-based, Macaca mulatta; parameters: dose 4.1 mg/kg; settings: rhesus monkey, in vivo
[24] = Clearance in dog at 4.1 mg/kg; assay type: ADME, organism-based, Canis lupus familiaris; parameters: dose 4.1 mg/kg; settings: in vivo
[25] = AUC in monkey at 4.1 mg/kg, po; assay type: ADME, organism-based, Macaca mulatta; parameters: dose 4.1 mg/kg, route oral; settings: rhesus monkey, plasma
[26] = Oral bioavailability in rat at 4.1 mg/kg; assay type: ADME, organism-based; settings: in vivo
[27] = Oral bioavailability in dog at 4.1 mg/kg; assay type: ADME, organism-based, Canis lupus familiaris; settings: in vivo
[28] = Volume of distribution at steady state in dog at 4.1 mg/kg; assay type: ADME, organism-based, Canis lupus familiaris; parameters: dose 4.1 mg/kg; settings: in vivo, read-out: Vdss
[29] = molecular target: Poly [ADP-ribose] polymerase 2 (Homo sapiens, UniProt Q9UGN5); experiment: Inhibition of PARP2
[30] = Half life in rat at 4.1 mg/kg, iv; assay type: ADME, organism-based; parameters: dose 4.1 mg/kg, route intravenous; settings: in vivo

Poly [ADP-ribose] polymerase 2, sequence (Q9UGN5 whole entry): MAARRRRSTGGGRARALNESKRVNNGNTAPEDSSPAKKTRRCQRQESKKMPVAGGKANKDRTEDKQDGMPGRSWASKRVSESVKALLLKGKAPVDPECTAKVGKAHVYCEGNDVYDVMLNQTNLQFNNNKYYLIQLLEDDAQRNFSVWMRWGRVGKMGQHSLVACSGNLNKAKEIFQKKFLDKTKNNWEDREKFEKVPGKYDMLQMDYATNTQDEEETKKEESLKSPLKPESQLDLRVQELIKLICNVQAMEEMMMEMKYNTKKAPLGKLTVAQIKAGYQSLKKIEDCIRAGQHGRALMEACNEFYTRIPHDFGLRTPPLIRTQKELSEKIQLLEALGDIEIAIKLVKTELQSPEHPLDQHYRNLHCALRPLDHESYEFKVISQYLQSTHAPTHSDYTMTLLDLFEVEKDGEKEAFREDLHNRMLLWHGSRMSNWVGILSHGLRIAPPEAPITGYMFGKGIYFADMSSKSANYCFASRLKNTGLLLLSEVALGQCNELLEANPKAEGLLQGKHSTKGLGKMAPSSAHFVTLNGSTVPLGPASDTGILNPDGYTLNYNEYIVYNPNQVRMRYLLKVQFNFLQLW
T1 sequence (P09874 whole entry): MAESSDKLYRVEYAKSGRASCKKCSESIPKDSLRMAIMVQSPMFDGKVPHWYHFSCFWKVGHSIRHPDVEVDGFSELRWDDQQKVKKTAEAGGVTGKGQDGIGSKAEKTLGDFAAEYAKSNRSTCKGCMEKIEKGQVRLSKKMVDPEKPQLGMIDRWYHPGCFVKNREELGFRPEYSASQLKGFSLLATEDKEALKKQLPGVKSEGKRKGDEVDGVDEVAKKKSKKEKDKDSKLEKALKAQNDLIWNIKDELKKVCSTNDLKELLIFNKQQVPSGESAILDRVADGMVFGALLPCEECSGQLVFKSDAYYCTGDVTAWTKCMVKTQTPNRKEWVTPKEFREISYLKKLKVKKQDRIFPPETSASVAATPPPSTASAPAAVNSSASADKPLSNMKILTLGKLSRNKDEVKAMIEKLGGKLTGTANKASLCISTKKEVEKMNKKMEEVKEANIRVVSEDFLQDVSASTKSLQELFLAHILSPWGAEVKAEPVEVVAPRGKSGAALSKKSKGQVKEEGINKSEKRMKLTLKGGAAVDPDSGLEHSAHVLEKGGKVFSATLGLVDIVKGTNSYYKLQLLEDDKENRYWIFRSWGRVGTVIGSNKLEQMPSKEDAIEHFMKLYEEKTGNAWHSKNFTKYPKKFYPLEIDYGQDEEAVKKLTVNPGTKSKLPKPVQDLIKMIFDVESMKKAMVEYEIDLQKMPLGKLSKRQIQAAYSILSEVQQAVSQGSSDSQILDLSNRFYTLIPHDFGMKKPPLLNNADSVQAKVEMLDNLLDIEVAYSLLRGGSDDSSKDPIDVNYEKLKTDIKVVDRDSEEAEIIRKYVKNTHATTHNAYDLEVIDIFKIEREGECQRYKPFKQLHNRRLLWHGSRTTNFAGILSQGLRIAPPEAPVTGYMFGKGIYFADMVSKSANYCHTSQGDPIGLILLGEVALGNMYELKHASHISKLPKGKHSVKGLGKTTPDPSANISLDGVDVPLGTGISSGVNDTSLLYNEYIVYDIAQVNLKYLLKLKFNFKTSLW

Structure (SMILES): NC(=O)c1cccc2[nH]cnc12
- Ki [1]: 240 nM

Structure (SMILES): COC1CCC(c2nc3cccc(C(N)=O)c3[nH]2)CC1 (centres undefined)
- Ki [1]: 44 nM
- EC50 [2]: 210 nM

Structure (SMILES): NC(=O)c1cccc2[nH]c(C3CCN(C4CCCC4)CC3)nc12
- Ki [1]: 6 nM
- EC50 [2]: 5 nM

Structure (SMILES): CC(C)N1CCCC(c2nc3cccc(C(N)=O)c3[nH]2)C1 (centres undefined)
- bioavailability [3]: 100%
- Ki [1]: 22 nM
- half-life [4]: 0.4 h
- EC50 [2]: 12 nM
- Cmax [5]: 800 ng/mL
- AUC [6]: 1200 ng·h/mL

Structure (SMILES): CC(C)N1CCC(c2nc3c(C(N)=O)cccc3[nH]2)CC1
- Ki [1]: 7 nM
- EC50 [2]: 4 nM
- Ki [29]: 2 nM

Structure (SMILES): CN1CCCC(c2nc3c(C(N)=O)cccc3[nH]2)C1 (centres undefined)
- Ki [1]: 30 nM
- EC50 [2]: 15 nM

Structure (SMILES): CN1CCC(c2nc3cccc(C(N)=O)c3[nH]2)CC1
- Ki [1]: 19 nM
- EC50 [2]: 9 nM

Structure (SMILES): N#Cc1ccc(N2CCC(c3nc4c(C(N)=O)cccc4[nH]3)CC2)cc1
- Ki [1]: 3 nM
- EC50 [2]: 21 nM

Structure (SMILES): CCN(CC)CCN1CCC(c2nc3cccc(C(N)=O)c3[nH]2)CC1
- Ki [1]: 31 nM
- EC50 [2]: 94 nM

Structure (SMILES): NC(=O)c1cccc2[nH]c(C3CNCCN3)nc12 (centres undefined)
- Ki [1]: 26 nM
- EC50 [2]: > 1000 nM

Structure (SMILES): CC(C)N1CCC(c2nc3c(C(N)=O)cc(Cl)cc3[nH]2)CC1
- bioavailability [3]: 100%
- Ki [1]: 18 nM
- half-life [4]: 1.4 h
- EC50 [2]: 9 nM
- Cmax [5]: 300 ng/mL
- AUC [6]: 1700 ng·h/mL

Structure (SMILES): CC(=O)N1CCC(c2nc3cccc(C(N)=O)c3[nH]2)CC1
- Ki [1]: 59 nM

Structure (SMILES): CC(C)N1CCC1c1nc2c(C(N)=O)cccc2[nH]1 (centres undefined)
- Ki [1]: 110 nM

Structure (SMILES): NC(=O)c1cccc2[nH]c(C3CCCNC3)nc12 (centres undefined)
- bioavailability [3]: 26%
- Ki [1]: 11 nM
- half-life [4]: 2 h
- EC50 [2]: 24 nM
- Cmax [5]: 200 ng/mL
- AUC [6]: 1000 ng·h/mL

Structure (SMILES): NC(=O)c1cccc2[nH]c([C@H]3CCCN3)nc12
- bioavailability [3]: 100%
- half-life [4]: 1.2 h
- Cmax [5]: 1800 ng/mL
- AUC [6]: 3400 ng·h/mL

Structure (SMILES): CCCN1CCC(c2nc3c(C(N)=O)cccc3[nH]2)C1 (centres undefined)
- Ki [1]: 8 nM
- EC50 [2]: 3 nM

Structure (SMILES): NC(=O)c1cccc2[nH]c(C3CCN3)nc12 (centres undefined)
- EC50 [2]: 200 nM

Structure (SMILES): CC(C)N1CCC[C@@H]1c1nc2cccc(C(N)=O)c2[nH]1
- Ki [1]: 21 nM
- EC50 [2]: 12 nM

Structure (SMILES): CC(C)N1CCCCC1c1nc2c(C(N)=O)cccc2[nH]1 (centres undefined)
- Ki [1]: 45 nM
- EC50 [2]: 13 nM

Structure (SMILES): CC(C)N1CCCC(c2nc3cccc(C(N)=O)c3[nH]2)CC1 (centres undefined)
- Ki [1]: 5 nM
- EC50 [2]: 6 nM

Structure (SMILES): NC(=O)c1cccc2[nH]c(C3CCN(S(=O)(=O)c4ccccc4)CC3)nc12
- Ki [1]: 27 nM
- EC50 [2]: > 1000 nM
- Ki [29]: 24 nM

Structure (SMILES): NC(=O)c1cccc2[nH]c(C3CNC3)nc12
- Ki [29]: 11 nM

Continued, values first:

- Ki [1]: 29 nM
- EC50 [2]: 30 nM
Structure (SMILES): CN1CCCCC1c1nc2c(C(N)=O)cccc2[nH]1 (centres undefined)

- Ki [1]: 20 nM
- EC50 [2]: 15 nM
Structure (SMILES): CC(C)N1CCC[C@H]1c1nc2c(C(N)=O)cccc2[nH]1

- Ki [1]: 17 nM
- EC50 [2]: 16 nM
Structure (SMILES): CCCN1CC(c2nc3c(C(N)=O)cccc3[nH]2)C1

- Vd [7]: 10.7 L/kg
- solubility [8]: 6000 µg/mL (≈ 21 mM)
- Cmax [9]: 1000 ng/mL
- half-life [10]: 1.2 h
- Vd [11]: 4.9 L/kg
- clearance [12]: 48.3 mL/min/kg
- Vd [13]: 9.1 L/kg
- clearance [14]: 88.3 mL/min/kg
- Cmax [15]: 200 ng/mL
- half-life [16]: 1.7 h
- bioavailability [3]: 63%
- AUC [17]: 3700 ng·h/mL
- bioavailability [18]: 32%
- Cmax [19]: 800 ng/mL
- Ki [1]: 8 nM
- AUC [20]: 700 ng·h/mL
- half-life [4]: 1.2 h
- half-life [21]: 2.7 h
- fraction unbound [22]: 0.43
- clearance [23]: 33.3 mL/min/kg
- clearance [24]: 15 mL/min/kg
- AUC [25]: 700 ng·h/mL
- EC50 [2]: 3 nM
- bioavailability [26]: 48%
- bioavailability [27]: 82%
- Vd [28]: 3.6 L/kg
- Cmax [5]: 400 ng/mL
- Ki [29]: 5 nM
- half-life [30]: 2.6 h
- AUC [6]: 1200 ng·h/mL
Structure (SMILES): CCCN1CCC(c2nc3cccc(C(N)=O)c3[nH]2)CC1

- bioavailability [3]: 89%
- half-life [4]: 0.8 h
- EC50 [2]: 6 nM
- Cmax [5]: 700 ng/mL
- AUC [6]: 1300 ng·h/mL
Structure (SMILES): NC(=O)c1cccc2[nH]c(C3CCN(CCc4ccccc4)C3)nc12 (centres undefined)

- Ki [1]: 28 nM
- EC50 [2]: 170 nM
Structure (SMILES): CN(C)S(=O)(=O)N1CCC(c2nc3c(C(N)=O)cccc3[nH]2)CC1

- Ki [29]: 3 nM
Structure (SMILES): NC(=O)c1cccc2nc([C@@H]3CCC(=O)N3)[nH]c12

- Ki [1]: 5 nM
- EC50 [2]: > 1000 nM
Structure (SMILES): NC(=O)c1cccc2[nH]c(C3CCNCC3)nc12

- bioavailability [3]: 25%
- half-life [4]: 0.1 h
- Cmax [5]: 30 ng/mL
- AUC [6]: 40 ng·h/mL
Structure (SMILES): CN1CCC[C@@H]1c1nc2c(C(N)=O)cccc2[nH]1

- Ki [1]: 35 nM
- EC50 [2]: 97 nM
Structure (SMILES): CN1CCN(C)C(c2nc3cccc(C(N)=O)c3[nH]2)C1 (centres undefined)

- Ki [1]: 34 nM
- EC50 [2]: 21 nM
Structure (SMILES): CCCN1CCC(c2nc3c(C(N)=O)cccc3n2C)CC1
